Reference: patent US20240383955A1, “MODIFIED ANTIMICROBIAL PEPTIDES” (priority 2021, published 2024)
Values after ≈ are worked out from the molar mass of the structure shown. Bridge positions count the residues as written; N and C are the ends. Square brackets hold non-standard residues; d marks the D form. Peptide text beside a SMILES is read from it. Dab = NCC[C@H](N)C(=O)O

Columns and labels:
B. cinerea [1] = assay: In vitro antifungal activity (MIC) in SFM culture media, with or without added salts; conditions: SFM + 2 mM CaCl2; Table 10
B. cinerea [2] = assay: Semi-in planta drop inoculation assay on detached leaves of N. benthamiana, gray mold symptoms; assay type: in vivo, B. cinerea on N. benthamiana; conditions: peptide at 3 μM and 6 μM; 48 h
Botrytis cinerea = conditions: Table 18

C[C@@H](O)[C@H](NC(=O)[C@H](CS)NC(=O)[C@H](Cc1ccccc1)NC(=O)[C@H](CS)NC(=O)[C@H](CCCNC(=N)N)NC(=O)[C@H](CCCNC(=N)N)NC(=O)[C@H](CCCNC(=N)N)NC(=O)[C@H](Cc1ccccc1)NC(=O)CNC(=O)[C@H](CCCNC(=N)N)NC(=O)[C@H](CS)NC(=O)[C@H](CCCNC(=N)N)NC(=O)CN)C(=O)N[C@H](C(=O)N[C@@H](Cc1c[nH]cn1)C(=O)N[C@@H](CS)C(=O)O)[C@@H](C)O [GMA4AC] (H-GRCRGFRRRCFCTTHC-OH; N-terminus and C-terminus assumed)
MIC Fusarium graminearum (F. graminearum): 6 µM (≈ 11.8 µg/mL)

NCC[C@H](NC(=O)CNC(=O)[C@@H](N)Cc1ccccc1)C(=O)N[C@@H](CS)C(=O)N[C@@H](CCN)C(=O)NCC(=O)N[C@@H](Cc1ccccc1)C(=O)N[C@@H](CCN)C(=O)N[C@@H](CCN)C(=O)N[C@@H](CCN)C(=O)N[C@@H](CS)C(=O)N[C@@H](Cc1ccccc1)C(=O)N[C@@H](CS)C(=O)N[C@@H](Cc1c[nH]c2ccccc12)C(=O)N[C@@H](CCN)C(=O)N[C@@H](Cc1c[nH]c2ccccc12)C(=O)N[C@@H](CS)C(=O)O [GMA4C_V5, FG(Dab)C(Dab)GF(Dab)(Dab)(Dab)CFCW(Dab)WC] (H-FG[Dab]C[Dab]GF[Dab][Dab][Dab]CFCW[Dab]WC-OH; N-terminus assumed)
SFM + 2 mM CaCl2 MIC (B. cinerea [1]): >6 (very μM

CC(C)C[C@@H]1NC(=O)[C@@H](NC(=O)[C@H](C)NC(=O)CN)CSSC[C@@H](C(=O)N[C@@H](Cc2ccc(O)cc2)C(N)=O)NC(=O)[C@H](Cc2c[nH]cn2)NC(=O)[C@H](CCCNC(=N)N)NC(=O)[C@H](Cc2ccc(O)cc2)NC(=O)[C@H](Cc2ccc(O)cc2)NC(=O)[C@H](Cc2c[nH]c3ccccc23)NC(=O)[C@H](Cc2ccccc2)NC(=O)[C@H](Cc2ccccc2)NC(=O)CNC(=O)[C@H](Cc2ccc(O)cc2)NC(=O)[C@H](Cc2c[nH]cn2)NC(=O)[C@H](CCCCN)NC(=O)[C@H](CO)NC(=O)[C@H](Cc2c[nH]cn2)NC(=O)[C@H](CCCNC(=N)N)NC(=O)[C@H](CC(N)=O)NC(=O)[C@H](CCCCN)NC1=O [GMAOe1C_V4] (H-GACLKNRHSKHYGFFWYYRHCY-NH2; disulfide 3-21)
gray mold symptoms (B. cinerea [2]): completely abrogated gray mold symptoms | MIC (SFM + 2 mM CaCl2) (Botrytis cinerea; SFM + 2 mM CaCl2): 6 to 12 µM | MIC (SFM + 100 mM KCl) (Botrytis cinerea; SFM + 100 mM KCl): 6 to 12 µM | MIC (SFM + 100 mM NaCl) (Botrytis cinerea; SFM + 100 mM NaCl): 6 µM | MIC SFM (Botrytis cinerea; SFM): 1.5 µM (≈ 4.25 µg/mL)

C[C@@H](O)[C@H](NC(=O)[C@H](CS)NC(=O)[C@H](Cc1ccccc1)NC(=O)[C@H](CS)NC(=O)[C@H](CCCNC(=N)N)NC(=O)[C@H](CCCNC(=N)N)NC(=O)[C@H](CCCNC(=N)N)NC(=O)[C@H](Cc1ccccc1)NC(=O)CNC(=O)[C@H](CCCNC(=N)N)NC(=O)[C@H](CS)NC(=O)[C@H](CCCNC(=N)N)NC(=O)CNC(=O)CN)C(=O)N[C@H](C(=O)N[C@@H](Cc1c[nH]cn1)C(=O)N[C@@H](CS)C(N)=O)[C@@H](C)O [GMA4C_AC] (H-GGRCRGFRRRCFCTTHC-NH2; N-terminus assumed)
F. graminearum MIC (F. graminearum): 3 µM | MIC Fusarium graminearum (F. graminearum): 3 µM (≈ 6.05 µg/mL) | MIC Values against F. graminearum (F. graminearum): 6 µM (≈ 12.1 µg/mL) | SFM + 2 mM CaCl2 MIC (B. cinerea [1]): >6 (a few μM
